Where “and” joins values, the source holds several entries; their conditions need not be identical. Identical values can stand only once.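 A five-concentration, 48-hour dose response in 96-well plates underlies each endpoint, interpolated linearly between surrounding concentrations. GI50: concentration for 50% inhibition of growth. The concentration for full growth arrest is given as TGI.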
Legend:
Experiment in all cases: inhibition of tumour cell growth, NCI panel, 48 h
COLO 205 colon = system: COLO 205 colon
RPMI-8226 leukemia = system: RPMI-8226 leukemia
MALME-3M melanoma = system: MALME-3M melanoma
HL-60(TB) leukemia = system: HL-60(TB) leukemia
SK-MEL-5 melanoma = system: SK-MEL-5 melanoma
SF-539 CNS = system: SF-539 CNS
KM12 colon = system: KM12 colon
HS 578T breast = system: HS 578T breast
HCC-2998 colon = system: HCC-2998 colon
MDA-MB-231 breast = system: MDA-MB-231 breast

`O=C(O)C1=C(CO)Oc2cc3c(cc2C1c1ccc2c(c1)OCO2)OCO3` (stereo unspecified) gave a TGI (COLO 205 colon) greater than 100 µM, a TGI (RPMI-8226 leukemia) greater than 100 µM and a TGI (MALME-3M melanoma) greater than 100 µM. The TGI (HL-60(TB) leukemia) was greater than 100 µM, the TGI (SK-MEL-5 melanoma) was greater than 100 µM and the TGI (SF-539 CNS) was greater than 100 µM.

Work on `Nc1[nH]c(=O)nc2c1cnn2COCCO` yielded a TGI (COLO 205 colon) greater than 100 µM, a TGI (RPMI-8226 leukemia) greater than 100 µM and a TGI (MALME-3M melanoma) greater than 100 µM. It also gave a TGI (HL-60(TB) leukemia) greater than 100 µM, a TGI (SK-MEL-5 melanoma) greater than 100 µM and a TGI (KM12 colon) greater than 100 µM. For the same compound, the TGI (SF-539 CNS) was greater than 100 µM.

Compound `C/C=C\C1OC1(C)c1cc(=O)c2c(C)cc3c(c2o1)C(=O)c1c(O)c(C2CC(C)(N(C)C)C(OC(C)=O)C(C)O2)cc(C2CC(N(C)C)C(O)C(C)O2)c1C3=O` (stereo unspecified) has a TGI (COLO 205 colon) of 0.00901 µM, a TGI (HS 578T breast) of 0.0223 µM and a TGI (RPMI-8226 leukemia) of 0.0574 µM. For the same compound, the TGI (HCC-2998 colon) was 0.00646 µM, the TGI (MALME-3M melanoma) was 0.0566 µM and the TGI (SK-MEL-5 melanoma) was 0.00936 µM. It also gave a TGI (KM12 colon) of 0.0109 µM, a TGI (MDA-MB-231 breast) of 0.0285 µM and a TGI (SF-539 CNS) of 0.0121 µM.

In the case of `CCCCC(CC)C(=O)Oc1ccc(C(=O)c2ccccc2)c(O)c1` (stereo unspecified), the TGI (COLO 205 colon) was greater than 100 µM, the TGI (HS 578T breast) was 64.9 µM and the TGI (RPMI-8226 leukemia) was greater than 100 µM. For the same compound, the TGI (HCC-2998 colon) was greater than 100 µM, the TGI (MALME-3M melanoma) was greater than 100 µM and the TGI (HL-60(TB) leukemia) was greater than 100 µM. The TGI (SK-MEL-5 melanoma) was greater than 100 µM, the TGI (KM12 colon) was greater than 100 µM and the TGI (MDA-MB-231 breast) was greater than 100 µM. It also gave a TGI (SF-539 CNS) greater than 100 µM.

`c1ccc(-c2cc3nc4ccccc4nc3cc(-c3ccccc3)[nH][nH]2)cc1` showed a TGI (COLO 205 colon) greater than 100 µM, a TGI (HS 578T breast) greater than 100 µM and a TGI (RPMI-8226 leukemia) greater than 100 µM. It also gave a TGI (HCC-2998 colon) greater than 100 µM, a TGI (MALME-3M melanoma) greater than 100 µM and a TGI (HL-60(TB) leukemia) of 53.5 µM. The TGI (SK-MEL-5 melanoma) was greater than 100 µM, the TGI (KM12 colon) was greater than 100 µM and the TGI (MDA-MB-231 breast) was greater than 100 µM. The TGI (SF-539 CNS) was greater than 100 µM.

`O=P1(Oc2ccc(Cl)cc2Cl)Oc2cc3ccccc3cc2O1` gave a TGI (COLO 205 colon) greater than 100 µM, a TGI (RPMI-8226 leukemia) greater than 60.1 µM and a TGI (HCC-2998 colon) of 59.6 µM. It also gave a TGI (MALME-3M melanoma) greater than 100 µM, a TGI (HL-60(TB) leukemia) of 50.8 µM and a TGI (SK-MEL-5 melanoma) greater than 100 µM. The TGI (KM12 colon) was greater than 100 µM and the TGI (SF-539 CNS) was greater than 100 µM.

Compound `C=C(C)[C@@H]1CC[C@]2(C(=O)O)CC[C@]3(C)[C@H](CC[C@@H]4[C@@]5(C)C/C(=C/c6ccco6)C(=O)C(C)(C)[C@@H]5CC[C@]43C)[C@@H]12` has a GI50 (COLO 205 colon) of 2.15 µM, a TGI (COLO 205 colon) of 4.38 µM and a GI50 (HS 578T breast) of 6.66 µM. For the same compound, the TGI (HS 578T breast) was greater than 100 µM.

With `O=C1c2cc3c(cc2[C@@H]2C(O)[C@H]4O[C@H]4C4CCN1C42)OCO3` (stereo partly specified) the TGI (COLO 205 colon) was greater than 37.5 µM, the TGI (RPMI-8226 leukemia) was greater than 37.5 µM and the TGI (HCC-2998 colon) was greater than 37.5 µM. For the same compound, the TGI (MALME-3M melanoma) was greater than 37.5 µM, the TGI (HL-60(TB) leukemia) was greater than 37.5 µM and the TGI (KM12 colon) was greater than 37.5 µM. The TGI (SF-539 CNS) was greater than 37.5 µM.

`CCOC(=O)c1sc2nc(SC)nc3c2c1NC(=O)CN3c1ccc(F)cc1` gave a TGI (COLO 205 colon) greater than 100 µM, a TGI (HS 578T breast) of 53.3 µM and a TGI (RPMI-8226 leukemia) greater than 100 µM. The TGI (HCC-2998 colon) was greater than 100 µM, the TGI (MALME-3M melanoma) was greater than 100 µM and the TGI (HL-60(TB) leukemia) was greater than 100 µM. For the same compound, the TGI (SK-MEL-5 melanoma) was greater than 100 µM, the TGI (KM12 colon) was greater than 100 µM and the TGI (MDA-MB-231 breast) was greater than 100 µM. For the same compound, the TGI (SF-539 CNS) was 33.3 µM.

Work on `C[C@@]12CC[C@@H](O)C[C@@H]1CC[C@H]1[C@H]2CC[C@@]2(C)[C@H](c3ccc(=O)oc3)CC[C@@]12O` yielded a GI50 (HS 578T breast) of less than 0.01 µM, a TGI (HS 578T breast) of 0.0351 µM and a GI50 (RPMI-8226 leukemia) of less than 0.01 µM. For the same compound, the GI50 (HCC-2998 colon) was 0.0124 µM, the TGI (HCC-2998 colon) was 0.142 µM and the GI50 (MALME-3M melanoma) was less than 0.01 µM. The TGI (MALME-3M melanoma) was 0.0174 µM, the GI50 (SK-MEL-5 melanoma) was less than 0.01 µM and the TGI (SK-MEL-5 melanoma) was 0.0141 µM. It also gave a GI50 (KM12 colon) of less than 0.0123 µM, a TGI (KM12 colon) of 0.153 µM and a GI50 (MDA-MB-231 breast) of 0.0192 µM. For the same compound, the TGI (MDA-MB-231 breast) was 0.116 µM, the GI50 (SF-539 CNS) was less than 0.01 µM and the TGI (SF-539 CNS) was 0.0137 µM.

For `Cc1ccc(C(=O)NC2C(=O)NC(C(C)C)C(=O)N3CCCC3C(=O)N(C)CC(=O)N(C)C(C(C)C)C(=O)OC2C)c2c1Oc1c(c(C(=O)NC3C(=O)NC(C(C)C)C(=O)N4CCCC4C(=O)N(C)CC(=O)N(C)C(C(C)C)C(=O)OC3C)c3nc(-c4ccccc4)c(=O)oc3c1C)N2` (stereo unspecified), the TGI (COLO 205 colon) was 0.0295 µM, the TGI (HS 578T breast) was 0.00548 µM and the TGI (RPMI-8226 leukemia) was 0.0442 µM. For the same compound, the TGI (HCC-2998 colon) was 0.00428 µM, the TGI (MALME-3M melanoma) was 0.195 µM and 0.0239 µM and the TGI (HL-60(TB) leukemia) was 0.557 µM. The TGI (SK-MEL-5 melanoma) was 0.0149 µM, the TGI (KM12 colon) was 0.00317 µM and the TGI (MDA-MB-231 breast) was 0.221 µM and 0.129 µM. For the same compound, the TGI (SF-539 CNS) was 0.00264 µM.

Source: PubChem BioAssay (NCI)
